# Reference: patent US20230405132A1, “ANTITUMOR PHARMACEUTICAL COMPOSITION AND USE THEREOF” (JENKEM TECHNOLOGY CO., LTD. (TIANJIN), priority 2020, published 2023)
# Structures can show the parent of a compound that is named as a salt.
# Key:
# [1] = Body weight of tumor-bearing mice during treatment; type: in vivo, mouse; details: TMZ 20 mg/kg PO, irinotecan hydrochloride or PEG-irinotecan 30 mg/kg IV
# Description: All procedures related to animal handling, care, and treatment in this study were performed according to the assessment of the Institutional Animal Care and Use Committee (IACUC) approved by Shanghai BioDuro Co., Ltd. (the CRO) and followed guidelines of the Association for Assessment and Accreditation of Laboratory Animal Care (AAALAC, accreditation number: 001516). In routine monitoring, the animals were examined that whether any adverse effects of tumor growth and/or treatment on normal behavior were present, such as motility, food and water consumption (by observation only), and body weight gain/loss (the body weight was measured twice a week during the pre-administration phase and daily during the administration phase), eye/hair matting and any other abnormalities.
# (§1) The body weight and tumor volume were compared by using two-way ANOVA analysis. All data were analyzed using GraphPad Prism 5. p<0.05 indicates statistical significance.
# SK-N-SH cells = assay: SK-N-SH subcutaneous tumor model in mice: tumor volume and tumor growth inhibition; type: in vivo, mouse; details: for tumor inhibition rate: SK-N-SH subcutaneous tumor model; for Tumor volume, mean ± standard error: TMZ 20 mg/kg PO, irinotecan hydrochloride or PEG-irinotecan 30 mg/kg IV
# Description: SK-N-SH cells were cultured in an EMEM medium containing 10% heat-inactivated fetal bovine serum, 100 μg/mL penicillin, and 100 μg/mL streptomycin (incubator condition: 37° C., 5% CO 2). The cells were subcultured twice a week. The cells in the exponential phase were collected, and counted grafting.
# 2.2 Tumor grafting and grouping 100 μL of a mixture of EMEM and 50% matrigel containing 5×10^6 SK-N-SH cells was grafted subcutaneously at the right abdomen of a mouse, and the tumor growth was observed. 80 animals were randomized according to tumor volume (103 mm 3) by using the grouping randomization method in Excel. […] Each group had 10 tumor-bearing mice.
# Tumor volume was measured twice a week using a vernier caliper.
# as §1
Compound,"Animal body weight, mean ± standard error ([1]; day 24) [g]","Animal body weight, mean ± standard error ([1]; day 27) [g]","Animal body weight, mean ± standard error ([1]; day 31) [g]","Animal body weight, mean ± standard error ([1]; day 34)","Animal body weight, mean ± standard error ([1]; day 38)","Animal body weight, mean ± standard error ([1]; day 41)",1 − T/C (tumor inhibition rate TGI) (SK-N-SH cells; D 34) [%],T/C (relative tumor proliferation rate) (SK-N-SH cells; D 34) [%],tumor inhibition rate (SK-N-SH cells) [%],"TV (b: Tumor volume on day 34) (SK-N-SH cells; Table 5, day 34) [mm^3]","Tumor volume, mean ± standard error (SK-N-SH cells; day 27) [mm^3]","Tumor volume, mean ± standard error (SK-N-SH cells; day 31) [mm^3]","Tumor volume, mean ± standard error (SK-N-SH cells; day 34)","Tumor volume, mean ± standard error (SK-N-SH cells; day 38)","Tumor volume, mean ± standard error (SK-N-SH cells; day 41)"
CCc1c2c(nc3ccc(OC(=O)N4CCC(N5CCCCC5)CC4)cc13)-c1cc3c(c(=O)n1C2)COC(=O)[C@]3(O)CC [Irinotecan hydrochloride],22 ± 0.4,21.8 ± 0.5,23 ± 0.5,24.3 ± 0.5 g,23.2 ± 0.4 (n = 8) g,21 (n = 1) g,30.99,69.01,31.0,,,,,,
Cn1nnc2c(C(N)=O)ncn2c1=O [Temozolomide],21.7 ± 0.4,21.5 ± 0.5,22 ± 0.6,23.7 ± 0.7 (n = 9) g,22.5 ± 0.5 (n = 5) g,23.3 ± 1.1 (n = 2) g,25.04,,25.0,1827.5 ± 262.2,462.9 ± 67.1,1071 ± 144.9,1827.5 ± 262.2 (n = 9) mm^3,2179.6 ± 209.6 (n = 5) mm^3,3004.1 ± 100.8 (n = 2) mm^3
